In PMC3213090, “Phytophthora sojae Avirulence Effector Avr3b is a Secreted NADH and ADP-ribose Pyrophosphorylase that Modulates Plant Immunity” (PLoS Pathogens, 2011):

How the values were obtained:
FLAG:AtNUDT7 = target: T1, FLAG:AtNUDT7 (Arabidopsis thaliana, UniProt Q9SU14); experiment: phosphate release coupled to calf alkaline phosphatase, molybdate A820; type: biochemical; conditions: 2 mM substrate, 5 mM MgCl2, 1 mM DTT, pH 8.5, 37 C; immunoprecipitate, not homogeneous
T1 construct: gene NUDT7; FLAG tag fused; Nicotiana benthamiana transient expression, anti-FLAG immunoprecipitated, eluted
T1 sequence (Q9SU14 1-282): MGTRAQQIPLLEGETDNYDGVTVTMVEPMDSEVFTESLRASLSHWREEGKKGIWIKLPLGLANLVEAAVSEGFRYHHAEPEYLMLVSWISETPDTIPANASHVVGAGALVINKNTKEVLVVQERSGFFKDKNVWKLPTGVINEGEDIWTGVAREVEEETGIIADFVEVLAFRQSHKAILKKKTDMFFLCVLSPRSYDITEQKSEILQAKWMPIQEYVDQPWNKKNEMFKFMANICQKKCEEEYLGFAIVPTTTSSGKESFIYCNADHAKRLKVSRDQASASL

[1] = target: T2, FLAG:Avr3b^P6497 (Avh307^P6497) (Phytophthora sojae, UniProt E0W4V8); experiment: as above; type: biochemical; conditions: 2 mM substrate, 5 mM MgCl2, 1 mM DTT, pH 8.5, 37 C; immunoprecipitate, not homogeneous
T2 construct: gene Avh; signal peptide replaced by N-terminal FLAG tag; 34-35 kDa; precursor 315 residues; Nicotiana benthamiana agroinfiltration (PVX vector pGR107), anti-FLAG immunoprecipitated, 3xFLAG eluted
T2 sequence (E0W4V8 entry or part of it): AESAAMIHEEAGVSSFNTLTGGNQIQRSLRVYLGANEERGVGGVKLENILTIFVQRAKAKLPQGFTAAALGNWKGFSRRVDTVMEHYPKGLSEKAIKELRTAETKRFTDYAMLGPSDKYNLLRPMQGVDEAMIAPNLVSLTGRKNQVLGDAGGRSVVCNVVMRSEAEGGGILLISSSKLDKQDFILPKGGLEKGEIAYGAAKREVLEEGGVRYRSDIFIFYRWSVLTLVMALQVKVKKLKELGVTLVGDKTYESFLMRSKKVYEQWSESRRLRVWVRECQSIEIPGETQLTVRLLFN

NC(=O)C1=CN([C@@H]2O[C@H](COP(=O)(O)OP(=O)(O)OC[C@H]3O[C@@H](n4cnc5c(N)ncnc54)[C@H](O)[C@@H]3O)[C@@H](O)[C@H]2O)C=CC1 [NADH]
relative hydrolase activity (ratio over GFP) (FLAG:AtNUDT7): FLAG:AtNUDT7 and FLAG:Avr3b^P6497 immunoprecipitates could both hydrolyze ADPR and NADH
relative hydrolase activity (ratio over GFP) [1]: FLAG:AtNUDT7 and FLAG:Avr3b^P6497 immunoprecipitates could both hydrolyze ADPR and NADH

Nc1ncnc2c1ncn2[C@@H]1O[C@H](COP(=O)(O)OP(=O)(O)OC[C@H]2OC(O)[C@H](O)[C@@H]2O)[C@@H](O)[C@H]1O (stereo partly shown) [ADP-ribose]
relative hydrolase activity (ratio over GFP) (FLAG:AtNUDT7): FLAG:AtNUDT7 and FLAG:Avr3b^P6497 immunoprecipitates could both hydrolyze ADPR and NADH
relative hydrolase activity (ratio over GFP) [1]: FLAG:AtNUDT7 and FLAG:Avr3b^P6497 immunoprecipitates could both hydrolyze ADPR and NADH
